Patent publication US20260070922A1, “PYRAZOLE AND IMIDAZOLE DERIVATIVES AS DUAL OREXIN AND KAPPA-OPIOID RECEPTORS MODULATORS COMPOSITION, METHODS FOR TREATING NEUROLOGICAL AND PSYCHIATRIC DISORDERS” (HAGER BIOSCIENCES, LLC, priority 2022, published 2026)

Key:
[1] = molecular target: T1, human k-opioid receptor (kOR) (Homo sapiens, UniProt P41145); test: Human k-opioid (KOP) receptor (agonist radioligand [3H]U-69593) binding assay, transfected RBL cell membranes; settings: read-out: KOR % Inh. @ 1 uM
T1 construct: expressed in transfected cells; host or cells: RBL cells (membrane homogenates)
T1 sequence (P41145 whole entry): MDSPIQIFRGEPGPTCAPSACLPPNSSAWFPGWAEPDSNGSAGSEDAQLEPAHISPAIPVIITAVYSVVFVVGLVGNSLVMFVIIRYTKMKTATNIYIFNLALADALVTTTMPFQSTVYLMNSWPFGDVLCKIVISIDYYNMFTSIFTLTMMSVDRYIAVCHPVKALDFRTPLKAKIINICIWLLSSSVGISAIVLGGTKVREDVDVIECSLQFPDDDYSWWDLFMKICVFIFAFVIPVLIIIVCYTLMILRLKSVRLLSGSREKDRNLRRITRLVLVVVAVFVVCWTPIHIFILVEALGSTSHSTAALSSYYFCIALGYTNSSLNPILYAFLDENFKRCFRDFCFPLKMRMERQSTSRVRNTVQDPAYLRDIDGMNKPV
In short: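 Membranes from transfected RBL cells (~80 μg protein) incubated 60 min at 22° C with 0.5 nM [3H]U-69593 in 50 mM Tris-HCl pH 7.4, 10 mM MgCl2, 1 mM EDTA. Nonspecific binding defined with 10 μM naloxone; filtration and scintillation counting. Values are percent inhibition of specific radioligand binding.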

[2] = molecular target: T2, Orexin type 1 (OX1R) receptor (Homo sapiens, UniProt O43613); test: In vitro orexin antagonism assay: intracellular calcium measurement (FLIPR), orexin-A 3 nM as agonist; format: cell-based; settings: for IC50: first value of IC50/Kb cell; for inhibition at 1 µM: read-out: OX1R, % Inh. @ 1 uM; for Kb: second value of IC50/Kb cell
T2 construct: expressed in transfected cells; host or cells: CHO cells (G418 selection)
T2 sequence (O43613 1-425): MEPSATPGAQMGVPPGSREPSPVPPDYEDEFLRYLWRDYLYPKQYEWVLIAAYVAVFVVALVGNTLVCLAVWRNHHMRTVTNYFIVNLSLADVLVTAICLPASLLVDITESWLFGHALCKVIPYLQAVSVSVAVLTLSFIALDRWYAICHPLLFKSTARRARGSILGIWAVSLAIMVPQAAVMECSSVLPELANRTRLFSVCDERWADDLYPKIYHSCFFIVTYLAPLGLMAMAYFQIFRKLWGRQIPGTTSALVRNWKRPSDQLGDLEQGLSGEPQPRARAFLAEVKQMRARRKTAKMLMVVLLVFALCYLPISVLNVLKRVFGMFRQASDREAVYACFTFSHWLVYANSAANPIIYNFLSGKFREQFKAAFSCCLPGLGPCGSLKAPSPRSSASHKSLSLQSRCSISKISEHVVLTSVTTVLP
In short: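 CHO cells expressing the human orexin receptor were loaded with 3 μM fluo-4 AM plus 5 mM probenecid, then exposed to antagonist for 120 min before 3 nM orexin-A (final) was added on a FLIPR.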

[3] = molecular target: T3, human orexin-2 receptor (OX2R) (Homo sapiens, UniProt O43614); test: as above; format: cell-based; settings: for IC50: first value of IC50/Kb cell; for inhibition at 1 µM: read-out: OX2R, % Inh. @ 1 uM; for Kb: second value of IC50/Kb cell
T3 construct: expressed in transfected cells; host or cells: CHO cells (G418 selection)
T3 sequence (O43614 1-444): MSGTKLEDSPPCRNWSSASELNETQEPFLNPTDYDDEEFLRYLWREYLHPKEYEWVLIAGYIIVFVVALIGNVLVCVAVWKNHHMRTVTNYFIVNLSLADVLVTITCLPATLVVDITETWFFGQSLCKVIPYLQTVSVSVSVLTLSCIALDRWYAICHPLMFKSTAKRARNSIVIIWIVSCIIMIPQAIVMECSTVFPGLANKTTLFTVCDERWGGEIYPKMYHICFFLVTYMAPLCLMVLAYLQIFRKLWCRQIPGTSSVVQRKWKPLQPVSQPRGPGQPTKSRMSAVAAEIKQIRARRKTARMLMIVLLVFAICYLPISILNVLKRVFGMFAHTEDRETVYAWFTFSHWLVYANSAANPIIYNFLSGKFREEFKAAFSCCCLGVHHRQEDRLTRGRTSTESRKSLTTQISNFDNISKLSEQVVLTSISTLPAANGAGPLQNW
In short: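 CHO cells stably expressing human OX1R or OX2R, loaded with fluo-4 AM (3 μM, 5 mM probenecid) for 50 min at 37 °C, then 30 min at RT. Antagonist preincubated 120 min before 3 nM orexin-A; FLIPR fluorescence peak height vs vehicle gives IC50, possibly normalized to on-plate reference; geometric mean of repeats.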

| Structure (SMILES) | inhibition at 1 µM [1] [%] | IC50 [2] [nM] | inhibition at 1 µM [2] [%] | Kb [2] [nM] | IC50 [3] [nM] | inhibition at 1 µM [3] [%] | Kb [3] [nM] |
| --- | --- | --- | --- | --- | --- | --- | --- |
| O=C(c1c(-c2ccccn2)nn2ccccc12)N1CCC[C@H]1Cn1ccc(-c2ccccn2)n1 [Example 139] | 0 | 8 | 100 | 2 | 63 | 82 | 11 |
| O=C(c1c(-c2ccccc2)nn2cccnc12)N1CCC[C@H]1Cn1ccc(-c2ccccn2)n1 [Example 140] | 14 | 4 | 100 | 1 | 190 | 59 | 32 |
| O=C(c1nn2c(c1-c1ccccc1)COCC2)N1CCC[C@H]1COc1ccc(C(F)(F)F)cn1 [Example 141] | 40 | 5 | 100 | 1 | – | 33 | – |
| C[C@@]1(COc2ccc(C(F)(F)F)cn2)CCCN1C(=O)c1nn2ccccc2c1-c1ccccc1 [Example 143] | 3 | 210 | 98 | 45 | – | 31 | – |
| C[C@@]1(COc2ccc(C(F)(F)F)cn2)CCCN1C(=O)c1nc2ccccn2c1-c1ccccc1 [Example 144] | 4 | 250 | 98 | 53 | – | 13 | – |
| C[C@@]1(COc2ccc(C(F)(F)F)cn2)CCCN1C(=O)c1nn2c(c1-c1ccccc1)COCC2 [Example 145] | 12 | 270 | 96 | 56 | – | 5 | – |
| C[C@@]1(COc2ccc(C(F)(F)F)cn2)CCCN1C(=O)c1nn2cccnc2c1-c1ccccc1 [Example 146] | 0 | 350 | 99 | 74 | – | 27 | – |
| C[C@@]1(COc2ccc(C(F)(F)F)cn2)CCCN1C(=O)c1c(-c2ccccn2)nn2ccccc12 [Example 147] | 2 | 43 | 100 | 9 | – | 25 | – |
| C[C@@]1(COc2ccc(C(F)(F)F)cn2)CCCN1C(=O)c1c(-c2ncccn2)nn2ccccc12 [Example 148] | 8 | 120 | 98 | 26 | – | 19 | – |
| C[C@@]1(Cn2ccc(-c3ccccn3)n2)CCCN1C(=O)c1nc2ccccn2c1-c1ccccc1 [Example 149] | 28 | 570 | 89 | 120 | – | 13 | – |
| C[C@@]1(Cn2ccc(-c3ccccn3)n2)CCCN1C(=O)c1nn2ccccc2c1-c1ccccc1 [Example 150] | 16 | 340 | 97 | 72 | – | 11 | – |
| C[C@@]1(COc2ccc(C(F)(F)F)cn2)CCCN1C(=O)c1c(-c2ccccc2)nn2ccccc12 [Example 151] | 7 | 90 | 99 | 19 | – | 34 | – |
| O=C(c1nn2c(c1-c1ccccc1)COCC2)N1[C@@H]2CC[C@@H](C2)[C@H]1COc1ccc(C(F)(F)F)cn1 [Example 152] | 3 | 2400 | 58 | 510 | – | 16 | – |
| O=C(c1c(-c2ncccn2)nn2ccccc12)N1[C@@H]2CC[C@@H](C2)[C@H]1COc1ccc(C(F)(F)F)cn1 [Example 153] | 0 | 190 | 90 | 40 | – | 35 | – |
| C[C@@]1(Cn2ccc(-c3ccccn3)n2)CCCN1C(=O)c1nn2c(c1-c1ccccc1)COCC2 [Example 154] | 23 | 520 | 83 | 110 | – | 5 | – |
| O=C(c1c(-c2ncccn2)nn2ccccc12)N1CCC[C@H]1Cc1nc(-c2ccccn2)no1 [Example 155] | 12 | 410 | 69 | 87 | – | 25 | – |
| O=C(c1c(-c2ccccn2)nn2ccccc12)N1CCC[C@H]1Cc1nc(-c2ccccn2)no1 [Example 156] | 6 | 23 | 97 | 5 | – | 50 | – |
| C[C@@]1(COc2ccc(C(F)(F)F)cn2)CCCN1C(=O)c1nn2c(c1-c1ccccc1)OCCC2 [Example 157] | 7 | 190 | 100 | 39 | – | 16 | – |
| C[C@@]1(COc2ccc(C(F)(F)F)cn2)CCCN1C(=O)c1c(-c2ccccc2)nn2cccnc12 [Example 158] | 2 | 120 | 93 | 26 | – | 46 | – |
| [2H]C1([2H])CC[C@@]([2H])(COc2ccc(C(F)(F)F)cn2)N1C(=O)c1nn2c(c1-c1ccccc1)COCC2 [Example 171] | 0 | 10 | 100 | 2 | – | 26 | – |
| O=C(c1nn2ccccc2c1-c1ccccn1)N1CCC[C@H]1COc1ccc(C(F)(F)F)cn1 [Example 172] | 4 | – | 100 | – | – | 40 | – |
| O=C(c1nn2ccccc2c1-c1ccccn1)N1CCC[C@H]1Cn1cc(-c2ccccn2)cn1 [Example 173] | 3 | 8 | 100 | 2 | 260 | 82 | 45 |
| O=C(c1nn2ccccc2c1-c1ccccn1)N1CCC[C@H]1Cn1ccc(-c2ccccn2)n1 [Example 174] | 0 | 5 | 100 | 0.9 | – | 56 | – |
| [2H]C1([2H])CC[C@@]([2H])(Cn2ccc(-c3ccc(F)cc3)n2)N1C(=O)c1c(-c2ncccn2)nn2ccccc12 [Example 178] | 53 | 4 | 92 | 0.8 | 15 | 95 | 3 |
| O=C(c1nc2ccccn2c1-c1ccccn1)N1CCC[C@H]1Cn1cc(-c2ccccn2)cn1 [Example 181] | 0 | 40 | 91 | 9 | – | 39 | – |
| O=C(c1nn2ccccc2c1-c1ccccn1)N1CCC[C@H]1Cn1cc(-c2ccc(F)cn2)cn1 [Example 183] | 0 | 38 | 94 | 9 | – | 67 | – |
| O=C(c1nn2cccnc2c1-c1ccccn1)N1CCC[C@H]1Cn1cc(-c2ccccn2)cn1 [Example 186] | 3 | 21 | 86 | 4 | – | 65 | – |
| O=C(c1nn2cccnc2c1-c1ccccn1)N1C(Cn2ccc(-c3ccc(F)cn3)n2)C[C@@H]2C[C@@H]21 (stereo partly drawn) [Example 187] | 0 | 14 | 100 | 3 | – | 34 | – |
| O=C(c1nn2cccnc2c1-c1ccccn1)N1CCC[C@H]1Cn1cc(-c2ccc(F)cn2)cn1 [Example 194] | 0 | – | 89 | – | 180 | 82 | 31 |
| O=C(c1nn2c(c1-c1ccccn1)OCCC2)N1CCC[C@H]1Cn1cc(-c2ccccn2)cn1 [Example 197] | 2 | 31 | 97 | 7 | – | 39 | – |
